The values below come from patent US8076324B2, “Di(hetero)arylcyclohexane derivatives, their preparation, their use and pharmaceutical compositions comprising them” (Sanofi-Aventis, priority 2007, dated 2011).

The target of data set [1] is T1, myocardial ATP-sensitive potassium channel (SUR2A/Kir6.2) (UniProt Q61743+Q63563).
T1 construct: expressed in transfected cells
The data set can be described thus: Rubidium efflux test on HEK293 cells transfected with SUR2A and Kir6.2 (myocardial action). The format is cell-based, SUR2A from the rat, Kir6.2 from the mouse. Conditions: HEK293 cells transfected with SUR2A/Kir6.2; KATP channels opened by rilmakalim; 25 min incubation; read-out: IC50 values for the inhibition of the rubidium efflux. The procedure, abridged:
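HEK293 cells stably expressing mouse Kir6.2 and rat SUR2A loaded 3 h at 37 °C with 5.4 mM RbCl, then test compound added and channels opened with rilmakalim (2 μM, stock as added) for 25 min at 37 °C. Rb+ in supernatant and lysate by atomic absorption; efflux = supernatant/total, IC50 via Hill equation.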

Broadly, the melting point is the temperature of the solid-liquid transition. The term IC50 denotes the concentration that gives 50% inhibition.

T1 sequence (Q63563 whole entry): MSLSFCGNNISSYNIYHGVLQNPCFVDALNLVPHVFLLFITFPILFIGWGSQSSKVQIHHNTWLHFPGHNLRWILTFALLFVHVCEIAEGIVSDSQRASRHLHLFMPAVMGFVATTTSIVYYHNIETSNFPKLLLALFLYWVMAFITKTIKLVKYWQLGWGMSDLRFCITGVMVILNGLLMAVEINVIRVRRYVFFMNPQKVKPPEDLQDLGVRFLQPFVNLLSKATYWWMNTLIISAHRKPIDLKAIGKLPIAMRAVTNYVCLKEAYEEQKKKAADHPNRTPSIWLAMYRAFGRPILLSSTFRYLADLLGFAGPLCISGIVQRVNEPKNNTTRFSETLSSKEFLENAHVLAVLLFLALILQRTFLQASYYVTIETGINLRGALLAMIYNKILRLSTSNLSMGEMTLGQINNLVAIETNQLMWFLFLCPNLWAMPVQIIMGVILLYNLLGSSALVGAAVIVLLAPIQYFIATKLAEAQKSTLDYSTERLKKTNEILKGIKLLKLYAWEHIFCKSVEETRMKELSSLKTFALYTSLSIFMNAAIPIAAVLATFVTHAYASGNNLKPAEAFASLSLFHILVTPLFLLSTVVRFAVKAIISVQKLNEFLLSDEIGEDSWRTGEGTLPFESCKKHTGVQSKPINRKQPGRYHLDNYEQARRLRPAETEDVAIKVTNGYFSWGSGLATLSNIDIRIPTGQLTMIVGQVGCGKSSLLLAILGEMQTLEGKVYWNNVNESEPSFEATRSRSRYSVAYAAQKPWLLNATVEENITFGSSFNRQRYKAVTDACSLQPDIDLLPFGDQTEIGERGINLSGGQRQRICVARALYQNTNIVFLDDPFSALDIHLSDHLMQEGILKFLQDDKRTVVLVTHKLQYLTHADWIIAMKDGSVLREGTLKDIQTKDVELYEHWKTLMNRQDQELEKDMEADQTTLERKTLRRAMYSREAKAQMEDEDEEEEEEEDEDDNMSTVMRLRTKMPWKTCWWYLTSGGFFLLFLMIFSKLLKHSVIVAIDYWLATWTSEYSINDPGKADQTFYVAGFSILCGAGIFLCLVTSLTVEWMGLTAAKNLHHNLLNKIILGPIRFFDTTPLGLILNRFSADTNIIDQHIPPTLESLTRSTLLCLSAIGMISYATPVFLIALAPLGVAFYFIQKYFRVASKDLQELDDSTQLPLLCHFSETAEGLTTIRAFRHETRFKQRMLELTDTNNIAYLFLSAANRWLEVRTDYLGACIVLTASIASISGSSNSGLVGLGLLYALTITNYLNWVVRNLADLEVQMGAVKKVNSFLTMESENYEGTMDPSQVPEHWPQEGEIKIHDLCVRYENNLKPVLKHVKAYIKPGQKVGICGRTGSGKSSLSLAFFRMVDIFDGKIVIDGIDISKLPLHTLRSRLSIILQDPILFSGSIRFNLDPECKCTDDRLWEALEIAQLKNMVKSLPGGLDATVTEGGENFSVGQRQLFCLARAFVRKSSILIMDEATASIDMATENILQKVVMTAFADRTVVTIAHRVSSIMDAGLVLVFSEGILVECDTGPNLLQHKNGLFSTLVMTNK
T1 sequence (Q61743 whole entry): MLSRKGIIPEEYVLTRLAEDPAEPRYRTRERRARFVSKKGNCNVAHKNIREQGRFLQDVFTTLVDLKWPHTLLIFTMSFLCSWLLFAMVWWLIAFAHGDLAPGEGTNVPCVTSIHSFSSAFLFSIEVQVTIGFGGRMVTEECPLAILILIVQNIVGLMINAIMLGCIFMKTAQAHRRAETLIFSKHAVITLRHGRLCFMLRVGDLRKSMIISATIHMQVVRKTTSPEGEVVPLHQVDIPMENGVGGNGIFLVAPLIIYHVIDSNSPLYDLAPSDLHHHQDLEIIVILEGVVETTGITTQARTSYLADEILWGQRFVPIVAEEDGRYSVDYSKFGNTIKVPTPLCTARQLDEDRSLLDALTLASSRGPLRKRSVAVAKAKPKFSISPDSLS

In the case of `Cc1c(Br)nc([C@]2(OCC3CC3)CC[C@](C(=O)O)(c3ccc(F)cc3)CC2)n1CC1CC1` [Example 350, Cis 4-(4-Bromo-1-cyclopropylmethyl-5-methyl-1H-imidazol-2-yl)-4-cyclopropylmethoxy-1-(4-fluorophenyl)cyclohexanecarboxylic Acid], the melting point is 210 °C. In data set [1], the IC50 was below 1000 nM.
For `Cc1cnc([C@]2(OCC3CC3)CC[C@](C(=O)O)(c3ccc(F)cc3)CC2)n1CC1CC1` [Example 357, Cis-4-Cyclopropylmethoxy-4-(1-cyclopropylmethyl-5-methyl-1H-imidazol-2-yl)-1-(4-fluorophenyl)cyclohexanecarboxylic Acid], in that order: 187 °C and below 1000 nM.
In turn, `Cc1c(S(C)(=O)=O)nc([C@]2(OCC3CC3)CC[C@](C(=O)O)(c3ccccc3)CC2)n1CC1CC1` [Example 422, Cis-4-Cyclopropylmethoxy-4-(1-cyclopropylmethyl-5-methyl-4-methanesulfonyl-1H-imidazol-2-yl)-1-phenylcyclohexanecarboxylic Acid] displayed a melting point of 242 °C. In data set [1], the IC50 is below 1000 nM.
The compound `Cc1c(Cl)nc([C@]2(OCC3CC3)CC[C@](C(=O)O)(c3ccc(F)cc3)CC2)n1CC1CC1` [Example 360, Cis-4-(4-Chloro-1-cyclopropylmethyl-5-methyl-1H-imidazol-2-yl)-4-cyclopropylmethoxy-1-(4-fluorophenyl)cyclohexanecarboxylic Acid] came in with a melting point of 185 °C. For the same compound, in data set [1], the IC50 was below 1000 nM.
`O=C(O)[C@]1(c2ccc(F)cc2)CC[C@](Oc2ccccc2)(c2ccc(F)cn2)CC1` [Example 345, Trans-1-(4-Fluorophenyl)-4-(5-fluoropyridin-2-yl)-4-phenoxycyclohexanecarboxylic Acid] had a melting point of 237 °C. For the same compound, the half-inhibitory concentration (IC50) in data set [1] is below 1000 nM.
In the case of `Cc1nc([C@]2(Oc3ccccc3)CC[C@](C(=O)O)(c3ccccc3)CC2)n(CC2CC2)c1Cl` [Example 400, Cis 4-(5-Chloro-1-cyclopropylmethyl-4-methyl-1H-imidazol-2-yl)-4-phenoxy-1-phenylcyclohexanecarboxylic Acid], the melting point is 170 °C. Further, the IC50 in data set [1] was below 1000 nM.
For `O=C(O)[C@]1(c2ccccc2)CC[C@@](Oc2ccc(C(F)(F)F)cc2)(c2nc(-c3ccccc3)n(CC3CC3)n2)CC1` [Example 474, Cis-4-(1-Cyclopropylmethyl-5-phenyl-1H-[1,2,4]triazol-3-yl)-1-phenyl-4-(4-trifluoromethylphenoxy)cyclohexanecarboxylic Acid], in that order: 85 °C and below 1000 nM.
For `O=C(O)[C@]1(c2ccc(F)cc2)CC[C@](Oc2ccccn2)(c2ccc(F)cn2)CC1` [Example 339, Trans-1-(4-Fluorophenyl)-4-(5-fluoropyridin-2-yl)-4-(pyridin-2-yloxy)cyclohexanecarboxylic Acid], in that order: above 300 °C and below 1000 nM.
On the same counts, the results for `Cc1nc([C@]2(OCC3CC3)CC[C@](C(=O)O)(c3ccccc3)CC2)n(CC2CC2)c1-c1ccc(F)cc1` [Example 427, Cis-4-Cyclopropylmethoxy-4-[1-cyclopropylmethyl-5-(4-fluorophenyl)-4-methyl-1H-imidazol-2-yl]-1-phenylcyclohexanecarboxylic Acid] are 199 °C and below 1000 nM.
`Cc1c(C#N)nc([C@]2(OCC3CC3)CC[C@](C(=O)O)(c3ccc(F)cc3)CC2)n1CC1CC1` [Example 418, Cis-4-(4-Cyano-1-cyclopropylmethyl-5-methyl-1H-imidazol-2-yl)-4-cyclopropylmethoxy-1-(4-fluorophenyl)cyclohexanecarboxylic Acid] yielded a melting point of 245 °C. Also, in data set [1], the 50% inhibitory concentration (IC50) was below 1000 nM.
As for `CS(=O)(=O)n1c2ccccc2cc1[C@]1(OCC2CC2)CC[C@](C(=O)O)(c2ccccc2)CC1` [Example 440, Cis-4-Cyclopropylmethoxy-4-(1-methanesulfonyl-1H-indol-2-yl)-1-phenylcyclohexanecarboxylic Acid], the melting point is 152 °C. Besides, the half-inhibitory concentration (IC50) in data set [1] was below 1000 nM.
